Experiments:
Experiment in all cases: Test C preemergence
Assay type in all cases: in vivo
Conditions in all cases: scale 0 to 100, 0 no effect, 100 complete control
[1] = test system: barnyardgrass (Echinochloa crus-galli)
In short: (§1)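 Preemergence: sow in loam-sand soil and treat. Postemergence: grow in peat-moss/vermiculite medium to 2–18 cm (1–4 leaves) and spray. Compound in non-phytotoxic solvent with surfactant; keep in greenhouse 13–15 d; score visually against controls, 0 (none) to 100 (full control).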

[2] = test system: blackgrass (Alopecurus myosuroides)
In short: as §1

corn (Zea mays) = test system: corn (Zea mays)
In short: as §1

[3] = test system: crabgrass, large (large crabgrass, Digitaria sanguinalis)
In short: as §1

[4] = test system: foxtail, giant (giant foxtail, Setaria faberii)
In short: as §1

[5] = test system: johnsongrass (Sorghum halepense)
In short: as §1

[6] = test system: lambsquarters (Chenopodium album)
In short: as §1

[7] = test system: morningglory (Ipomoea coccinea)
In short: as §1

[8] = test system: nutsedge, yellow (yellow nutsedge, Cyperus esculentus)
In short: as §1

[9] = test system: oilseed rape (Brassica napus)
In short: as §1

[10] = test system: ragweed (common ragweed, Ambrosia elatior)
In short: as §1

[11] = test system: ryegrass, Italian (Italian ryegrass, Lolium multiflorum)
In short: as §1

soybean (Glycine max) = test system: soybean (Glycine max)
In short: as §1

[12] = test system: velvetleaf (Abutilon theophrasti)
In short: as §1

[13] = test system: waterhemp (common waterhemp, Amaranthus rudis)
In short: as §1

[14] = test system: wheat (winter wheat, Triticum aestivum)
In short: as §1

[15] = test system: Galium (catchweed bedstraw, Galium aparine)
In short: as §1

CN1CC(c2cccc(C(F)(F)F)c2)C(C)(C(=O)Nc2ccccc2F)C1=O (stereo not shown) [Compound 428]
Plant response rating, Barnyardgrass ([1]; 31 g ai/ha): 90
Plant response rating, Barnyardgrass ([1]; 62 g ai/ha): 95
Plant response rating, Barnyardgrass ([1]; 125 g ai/ha): 95
Plant response rating, Barnyardgrass ([1]; 250 g ai/ha): 98
Plant response rating, Blackgrass ([2]; 31 g ai/ha): 0
Plant response rating, Blackgrass ([2]; 62 g ai/ha): 0
Plant response rating, Blackgrass ([2]; 125 g ai/ha): 30
Plant response rating, Blackgrass ([2]; 250 g ai/ha): 30
Plant response rating, Corn (corn (Zea mays); 31 g ai/ha): 15
Plant response rating, Corn (corn (Zea mays); 62 g ai/ha): 25
Plant response rating, Corn (corn (Zea mays); 125 g ai/ha): 55
Plant response rating, Corn (corn (Zea mays); 250 g ai/ha): 70
Plant response rating, Crabgrass, Large ([3]; 31 g ai/ha): 90
Plant response rating, Crabgrass, Large ([3]; 62 g ai/ha): 95
Plant response rating, Crabgrass, Large ([3]; 125 g ai/ha): 98
Plant response rating, Crabgrass, Large ([3]; 250 g ai/ha): 98
Plant response rating, Foxtail, Giant ([4]; 31 g ai/ha): 85
Plant response rating, Foxtail, Giant ([4]; 62 g ai/ha): 90
Plant response rating, Foxtail, Giant ([4]; 125 g ai/ha): 90
Plant response rating, Foxtail, Giant ([4]; 250 g ai/ha): 95
Plant response rating, Johnsongrass ([5]; 31 g ai/ha): 5
Plant response rating, Johnsongrass ([5]; 62 g ai/ha): 50
Plant response rating, Johnsongrass ([5]; 125 g ai/ha): 65
Plant response rating, Johnsongrass ([5]; 250 g ai/ha): 75
Plant response rating, Lambsquarters ([6]; 31 g ai/ha): 0
Plant response rating, Lambsquarters ([6]; 62 g ai/ha): 10
Plant response rating, Lambsquarters ([6]; 125 g ai/ha): 35
Plant response rating, Lambsquarters ([6]; 250 g ai/ha): 65
Plant response rating, Morningglory ([7]; 31 g ai/ha): 0
Plant response rating, Morningglory ([7]; 62 g ai/ha): 0
Plant response rating, Morningglory ([7]; 125 g ai/ha): 0
Plant response rating, Morningglory ([7]; 250 g ai/ha): 0
Plant response rating, Nutsedge, Yellow ([8]; 31 g ai/ha): 0
Plant response rating, Nutsedge, Yellow ([8]; 62 g ai/ha): 0
Plant response rating, Nutsedge, Yellow ([8]; 125 g ai/ha): 0
Plant response rating, Nutsedge, Yellow ([8]; 250 g ai/ha): 30
Plant response rating, Oilseed Rape ([9]; 31 g ai/ha): 0
Plant response rating, Oilseed Rape ([9]; 62 g ai/ha): 0
Plant response rating, Oilseed Rape ([9]; 125 g ai/ha): 0
Plant response rating, Oilseed Rape ([9]; 250 g ai/ha): 15
Plant response rating, Ragweed ([10]; 31 g ai/ha): 0
Plant response rating, Ragweed ([10]; 62 g ai/ha): 0
Plant response rating, Ragweed ([10]; 125 g ai/ha): 0
Plant response rating, Ragweed ([10]; 250 g ai/ha): 0
Plant response rating, Ryegrass, Italian ([11]; 62 g ai/ha): 40
Plant response rating, Ryegrass, Italian ([11]; 125 g ai/ha): 40
Plant response rating, Ryegrass, Italian ([11]; 250 g ai/ha): 45
Plant response rating, Soybean (soybean (Glycine max); 62 g ai/ha): 0
Plant response rating, Soybean (soybean (Glycine max); 125 g ai/ha): 0
Plant response rating, Soybean (soybean (Glycine max); 250 g ai/ha): 15
Plant response rating, Velvetleaf ([12]; 62 g ai/ha): 0
Plant response rating, Velvetleaf ([12]; 125 g ai/ha): 0
Plant response rating, Velvetleaf ([12]; 250 g ai/ha): 10
Plant response rating, Waterhemp ([13]; 62 g ai/ha): 0
Plant response rating, Waterhemp ([13]; 125 g ai/ha): 10
Plant response rating, Waterhemp ([13]; 250 g ai/ha): 35
Plant response rating, Wheat ([14]; 62 g ai/ha): 15
Plant response rating, Wheat ([14]; 125 g ai/ha): 50
Plant response rating, Wheat ([14]; 250 g ai/ha): 80

Cc1ccc(C2CN(C)C(=O)C2C(=O)Nc2cccc(F)c2F)cc1F (stereo not shown) [Compound 464]
Plant response rating, Galium ([15]; 31 g ai/ha): 90
Plant response rating, Galium ([15]; 62 g ai/ha): 95
Plant response rating, Galium ([15]; 125 g ai/ha): 95
Plant response rating, Galium ([15]; 250 g ai/ha): 95
Plant response rating, Barnyardgrass ([1]; 31 g ai/ha): 90
Plant response rating, Barnyardgrass ([1]; 62 g ai/ha): 95
Plant response rating, Barnyardgrass ([1]; 125 g ai/ha): 95
Plant response rating, Barnyardgrass ([1]; 250 g ai/ha): 98
Plant response rating, Blackgrass ([2]; 31 g ai/ha): 80
Plant response rating, Blackgrass ([2]; 62 g ai/ha): 85
Plant response rating, Blackgrass ([2]; 125 g ai/ha): 85
Plant response rating, Blackgrass ([2]; 250 g ai/ha): 85
Plant response rating, Corn (corn (Zea mays); 31 g ai/ha): 50
Plant response rating, Corn (corn (Zea mays); 62 g ai/ha): 70
Plant response rating, Corn (corn (Zea mays); 125 g ai/ha): 75
Plant response rating, Corn (corn (Zea mays); 250 g ai/ha): 90
Plant response rating, Crabgrass, Large ([3]; 31 g ai/ha): 95
Plant response rating, Crabgrass, Large ([3]; 62 g ai/ha): 100
Plant response rating, Crabgrass, Large ([3]; 125 g ai/ha): 100
Plant response rating, Crabgrass, Large ([3]; 250 g ai/ha): 100
Plant response rating, Johnsongrass ([5]; 31 g ai/ha): 35
Plant response rating, Johnsongrass ([5]; 62 g ai/ha): 80
Plant response rating, Johnsongrass ([5]; 125 g ai/ha): 85
Plant response rating, Johnsongrass ([5]; 250 g ai/ha): 95
Plant response rating, Lambsquarters ([6]; 31 g ai/ha): 45
Plant response rating, Lambsquarters ([6]; 62 g ai/ha): 80
Plant response rating, Lambsquarters ([6]; 125 g ai/ha): 80
Plant response rating, Lambsquarters ([6]; 250 g ai/ha): 90
Plant response rating, Morningglory ([7]; 31 g ai/ha): 10
Plant response rating, Morningglory ([7]; 62 g ai/ha): 20
Plant response rating, Morningglory ([7]; 125 g ai/ha): 20
Plant response rating, Morningglory ([7]; 250 g ai/ha): 40
Plant response rating, Nutsedge, Yellow ([8]; 31 g ai/ha): 0
Plant response rating, Nutsedge, Yellow ([8]; 62 g ai/ha): 0
Plant response rating, Nutsedge, Yellow ([8]; 125 g ai/ha): 0
Plant response rating, Nutsedge, Yellow ([8]; 250 g ai/ha): 0
Plant response rating, Oilseed Rape ([9]; 31 g ai/ha): 80
Plant response rating, Oilseed Rape ([9]; 62 g ai/ha): 85
Plant response rating, Oilseed Rape ([9]; 125 g ai/ha): 80
Plant response rating, Oilseed Rape ([9]; 250 g ai/ha): 90
Plant response rating, Ragweed ([10]; 31 g ai/ha): 70
Plant response rating, Ragweed ([10]; 62 g ai/ha): 70
Plant response rating, Ragweed ([10]; 125 g ai/ha): 75
Plant response rating, Ragweed ([10]; 250 g ai/ha): 90
Plant response rating, Ryegrass, Italian ([11]; 62 g ai/ha): 55
Plant response rating, Ryegrass, Italian ([11]; 125 g ai/ha): 70
Plant response rating, Ryegrass, Italian ([11]; 250 g ai/ha): 85
Plant response rating, Soybean (soybean (Glycine max); 62 g ai/ha): 0
Plant response rating, Soybean (soybean (Glycine max); 125 g ai/ha): 0
Plant response rating, Soybean (soybean (Glycine max); 250 g ai/ha): 0
Plant response rating, Velvetleaf ([12]; 62 g ai/ha): 30
Plant response rating, Velvetleaf ([12]; 125 g ai/ha): 45
Plant response rating, Velvetleaf ([12]; 250 g ai/ha): 60
Plant response rating, Waterhemp ([13]; 62 g ai/ha): 75
Plant response rating, Waterhemp ([13]; 125 g ai/ha): 80
Plant response rating, Waterhemp ([13]; 250 g ai/ha): 95
Plant response rating, Wheat ([14]; 62 g ai/ha): 50
Plant response rating, Wheat ([14]; 125 g ai/ha): 70
Plant response rating, Wheat ([14]; 250 g ai/ha): 90

Source: US12077503B2, “Substituted cyclic amides and their use as herbicides” (FMC CORPORATION, priority 2015, dated 2024)
